Here are results for 15 compounds from ChEMBL document CHEMBL1811837 (Bioorg Med Chem, 2011).

Molecules are shown by their SMILES. The source made the active and inactive calls. The calls are words filed in the database; no cut-off is given here.

Test [1] deals with T1, D(4) dopamine receptor (Homo sapiens, UniProt P21917).
T1 sequence (P21917 whole entry): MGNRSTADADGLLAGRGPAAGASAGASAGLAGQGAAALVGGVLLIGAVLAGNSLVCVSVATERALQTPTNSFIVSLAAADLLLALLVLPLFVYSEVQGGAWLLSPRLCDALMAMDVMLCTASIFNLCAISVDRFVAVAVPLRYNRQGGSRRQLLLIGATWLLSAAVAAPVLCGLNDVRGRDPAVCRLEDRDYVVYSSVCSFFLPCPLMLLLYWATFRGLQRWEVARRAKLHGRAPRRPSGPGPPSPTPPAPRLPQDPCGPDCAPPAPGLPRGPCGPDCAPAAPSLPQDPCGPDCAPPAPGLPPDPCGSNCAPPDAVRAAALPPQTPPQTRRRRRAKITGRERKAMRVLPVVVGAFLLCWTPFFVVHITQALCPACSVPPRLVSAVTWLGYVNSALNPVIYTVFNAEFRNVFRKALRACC
Kind of test: biochemical.

For test [2], the target named is Sigma non-opioid intracellular receptor 1 (Cavia porcellus, UniProt Q60492).
Description: Displacement of [3H](+)-pentazocine from guinea pig brain sigma-1 receptor after 90 mins by liquid scintillation counter
Test [3] has as its target T2, D(3) dopamine receptor (Homo sapiens, UniProt P35462). As to the kind of experiment: biochemical.
In test [4] the target is T3, D(2) dopamine receptor (Homo sapiens, UniProt P14416). Kind of test: biochemical.
The target of test [5] is T3, D(2) dopamine receptor. As to the kind of experiment: Partial agonist activity at human recombinant D2L receptor expressed in HEK cells assessed as inhibition of forskolin-induced [3H]cAMP production at 10 times Ki after 20 mins by […]. The settings on record: HEK293. The format is functional, cell-based. On the technique in general: cAMP levels reflect the balance of adenylyl cyclase and phosphodiesterase activity.

The target in test [6] is T2, D(3) dopamine receptor. Kind of test: Partial agonist activity at human recombinant D3 receptor expressed in HEK cells assessed as inhibition of forskolin-induced [3H]cAMP production at 10 times Ki after 20 mins by […]. The class given is functional, cell-based. Conditions: HEK293.
The target in test [7] is T3, D(2) dopamine receptor. Kind of test: Intrinsic efficacy at human recombinant D2L receptor expressed in HEK cells assessed as assessed as inhibition of forskolin-induced [3H]cAMP production after 20 mins by […]. The format is functional, cell-based. Further details: scale not given: the % may be the effect or the level left. The settings on record: HEK293.

The target in test [8] is T3, D(2) dopamine receptor.

Sequence of Sigma non-opioid intracellular receptor 1 (Q60492 whole entry): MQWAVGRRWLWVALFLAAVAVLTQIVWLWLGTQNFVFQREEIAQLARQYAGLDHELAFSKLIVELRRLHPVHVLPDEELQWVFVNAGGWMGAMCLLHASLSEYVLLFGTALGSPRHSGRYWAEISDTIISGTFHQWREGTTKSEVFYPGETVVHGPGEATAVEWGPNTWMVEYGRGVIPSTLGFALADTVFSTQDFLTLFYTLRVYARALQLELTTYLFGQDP
T2 sequence (P35462 whole entry): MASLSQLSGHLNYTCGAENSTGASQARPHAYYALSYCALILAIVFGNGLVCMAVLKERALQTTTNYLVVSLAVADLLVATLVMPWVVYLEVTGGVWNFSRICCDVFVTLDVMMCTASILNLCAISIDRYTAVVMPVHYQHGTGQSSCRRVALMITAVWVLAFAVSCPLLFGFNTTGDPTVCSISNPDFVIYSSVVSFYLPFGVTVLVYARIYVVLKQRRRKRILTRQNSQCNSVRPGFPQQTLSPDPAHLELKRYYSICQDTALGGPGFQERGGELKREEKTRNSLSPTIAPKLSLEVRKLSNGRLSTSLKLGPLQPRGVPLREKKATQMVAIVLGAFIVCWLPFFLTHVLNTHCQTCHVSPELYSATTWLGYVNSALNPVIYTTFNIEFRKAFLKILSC
T3 sequence (P14416 whole entry): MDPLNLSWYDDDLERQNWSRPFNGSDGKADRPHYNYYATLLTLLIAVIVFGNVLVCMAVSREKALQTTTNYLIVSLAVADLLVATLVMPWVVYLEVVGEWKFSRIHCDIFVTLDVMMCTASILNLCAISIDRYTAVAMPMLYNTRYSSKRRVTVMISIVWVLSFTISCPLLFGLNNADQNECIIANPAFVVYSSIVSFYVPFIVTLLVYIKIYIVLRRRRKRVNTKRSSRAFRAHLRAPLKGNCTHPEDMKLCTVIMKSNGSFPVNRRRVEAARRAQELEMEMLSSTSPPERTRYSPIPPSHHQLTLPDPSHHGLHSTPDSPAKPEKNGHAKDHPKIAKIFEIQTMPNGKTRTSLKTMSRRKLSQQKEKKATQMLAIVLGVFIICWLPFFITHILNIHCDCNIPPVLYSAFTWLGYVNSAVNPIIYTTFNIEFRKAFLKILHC

For orientation: Ki means a dissociation constant, usually derived from enzyme kinetics or from competition with a known ligand. In the case of `COc1ccccc1N1CCN(CCCOc2ccc3ccc(=O)[nH]c3c2)CC1`, the Ki in test [1] was found to be 52.7 nM; in test [2], 2600 nM; in test [3], 5.7 nM; in test [4], 2.6 nM.
In the case of `O=C1CCc2ccc(OCCCCN3CCC(n4c(=O)[nH]c5cc(Cl)ccc54)CC3)cc2N1`, the Ki is 1350 nM in test [1], 574 nM in test [3] and 309 nM in test [4].
With `COc1cc(C)ccc1N1CCN(CCCCOc2ccc3c(c2)NC(=O)CC3)CC1`, the Ki in test [1] came out at 27.2 nM; in test [2], 377 nM; in test [3] it was 251 nM; in test [4] it was 4.6 nM.
Regarding `O=C1CCc2ccc(OCCCCN3CCN(c4ccccc4OCCF)CC3)cc2N1`, the result in test [5] and in test [6] was Active. Further, the Ki turned out to be 185 nM in test [1], 13600 nM in test [2], 13.5 nM in test [3] and 0.26 nM in test [4]. For the same compound, the Activity in test [7] stood at 16%.
`CN1CN(c2ccccc2)C2(CCN(CCCCOc3ccc4c(c3)NC(=O)CC4)CC2)C1=O`: the Ki was determined as 865 nM in test [1], 427 nM in test [3] and 611 nM in test [4].
For the compound `O=C1CCc2ccc(OCCCCN3CCC(O)(c4ccc(Cl)cc4)CC3)cc2N1`, the Ki is 1310 nM in test [1], 417 nM in test [2], 1540 nM in test [3] and 2600 nM in test [4].
Compound `COc1ccccc1N1CCN(CCCCCOc2ccc3c(c2)NC(=O)CC3)CC1` yielded a Ki in test [2] of 1350 nM.
For `COc1ccccc1N1CCN(CCCCCOc2ccc3ccc(=O)[nH]c3c2)CC1`, the Ki in test [1] is 201 nM; in test [2], 1610 nM; in test [3] it was 3.8 nM; in test [4], 7.4 nM.
For `COc1ccccc1N1CCN(CCCCOc2ccc3ccc(=O)[nH]c3c2)CC1`, in that order: 30.1 nM, 2630 nM, 5.4 nM and 0.14 nM.
Take `COc1ccccc1N1CCN(CCCOc2ccc3c(c2)NC(=O)CC3)CC1`: the Ki in test [8] came out at 4.8 nM; in test [1], 38.5 nM; in test [2], 759 nM; in test [3], 7.4 nM.
Regarding `COc1ccc(N2CCN(CCCCOc3ccc4c(c3)NC(=O)CC4)CC2)c(OC)c1`, the Ki worked out at 286 nM in test [1], 620 nM in test [2], 785 nM in test [3] and 25.3 nM in test [4].
For `COc1ccc(N2CCN(CCCCOc3ccc4c(c3)NC(=O)CC4)CC2)cc1`, in that order: 359 nM, 170 nM, 930 nM and 102 nM.
For the compound `O=C1CCc2ccc(OCCCCN3CCC(n4c(=O)[nH]c5ccccc54)CC3)cc2N1`, the Ki in test [1] came out at 1030 nM; in test [3] it was 879 nM; in test [4] it was 145 nM.
Consider `O=c1ccc2ccc(OCCCCN3CCN(c4ccccc4OCCF)CC3)cc2[nH]1`, for which the Ki in test [1] stood at 31.9 nM; in test [2] it was 20900 nM; in test [3], 2.7 nM; in test [4], 0.07 nM.
For `COc1ccccc1N1CCN(CCCCOc2ccc3c(c2)NC(=O)CC3)CC1`, the Ki in test [2] worked out at 1180 nM.
